Active and inactive are the calls of the source. The calls are words filed in the database; no cut-off is given here.
Key:
[1] = biological target: Intercellular adhesion molecule 1 (Homo sapiens) (UniProt P05362); assay: Inhibition of sICAM1/LFA1 interaction-mediated human THP1 cell adhesion at 6.25 ug/mL after 1 hr by ELISA; type: cell-based; conditions: THP-1
[2] = biological target: Intercellular adhesion molecule 1 (Homo sapiens) (UniProt P05362); assay: Inhibition of sICAM1/LFA1 interaction-mediated human THP1 cell adhesion at 25 ug/mL after 1 hr by ELISA; conditions: THP-1
Mus musculus = species: Mus musculus; assay: Antiinflammatory activity in mouse; type: functional, organism-based
[3] = biological target: Intercellular adhesion molecule 1 (Homo sapiens) (UniProt P05362); assay: Inhibition of sICAM1/LFA1 interaction-mediated human THP1 cell adhesion at 3.13 ug/mL after 1 hr by ELISA; type: cell-based; conditions: THP-1
[4] = biological target: Intercellular adhesion molecule 1 (Homo sapiens) (UniProt P05362); assay: Inhibition of sICAM1/LFA1 interaction-mediated human THP1 cell adhesion at 12.50 ug/mL after 1 hr by ELISA; type: cell-based; conditions: THP-1
THP-1 = assay: Cytotoxicity against human THP1 cells assessed as cell viability at 3.13 to 25.00 ug/mL by MTT assay; type: cell-based

Sequence of Intercellular adhesion molecule 1 (Homo sapiens) (P05362 whole entry): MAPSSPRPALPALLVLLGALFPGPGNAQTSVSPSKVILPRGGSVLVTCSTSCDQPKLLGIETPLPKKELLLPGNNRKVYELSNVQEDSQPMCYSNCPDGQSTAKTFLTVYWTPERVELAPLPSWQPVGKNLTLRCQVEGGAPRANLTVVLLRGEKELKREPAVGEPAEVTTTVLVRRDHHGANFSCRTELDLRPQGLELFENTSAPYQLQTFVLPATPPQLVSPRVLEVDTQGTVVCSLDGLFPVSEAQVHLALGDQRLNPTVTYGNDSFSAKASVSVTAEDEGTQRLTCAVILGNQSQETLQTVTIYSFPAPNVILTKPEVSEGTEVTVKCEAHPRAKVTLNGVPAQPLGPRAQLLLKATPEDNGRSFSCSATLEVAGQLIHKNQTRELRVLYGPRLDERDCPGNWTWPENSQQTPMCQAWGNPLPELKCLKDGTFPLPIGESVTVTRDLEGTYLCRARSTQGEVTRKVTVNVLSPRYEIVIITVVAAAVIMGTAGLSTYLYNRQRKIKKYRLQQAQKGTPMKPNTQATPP

Structure (SMILES)	inhibition [1] [%]	inhibition [2] [%]	Activity (Mus musculus)	Activity [3]	inhibition [4] [%]	Activity (THP-1)	inhibition [3] [%]	Activity [2]
O=C(/C=C/C=C\CC/C=C/c1ccc2c(c1)OCO2)N1CCCCC1	13.1	92.1	Active	inactive	58.4	Non-toxic	–	–
O=C(/C=C/C=C/CC/C=C/c1ccc2c(c1)OCO2)N1CCCCC1 [DEHYDROPIPERNOLINE]	52.5	73.4	Active	–	57.7	Non-toxic	30.1	–
CCCCC/C=C/C=C/C(=O)NCC(C)C [PELLITORIN]	16.5	80.6	Active	–	46.4	Non-toxic	11.3	–
CC(C)CNC(=O)/C=C/CCCC/C=C/c1ccc2c(c1)OCO2 [RETROFRACTAMIDE C]	29.9	36	Active	inactive	35.9	Non-toxic	–	–
CC(C)CNC(=O)/C=C/CCCCCC/C=C/c1ccc2c(c1)OCO2 [PIPERCHABAMIDE D]	20.9	42.6	Active	–	26.9	Non-toxic	15.6	–
CC[C@H](C)C(=O)O[C@H]1C[C@@H](C)C=C2C=C[C@H](C)[C@H](CC[C@@H]3C[C@@H](O)CC(=O)O3)[C@H]21	37.7	–	–	inactive	61.4	–	–	inactive
O=C(CCCCCC/C=C/c1ccc2c(c1)OCO2)N1CCCCC1 [PIPERROLEIN B]	28.5	67.6	Active	–	46.5	Non-toxic	16.2	–
CC(C)CNC(=O)/C=C/C=C/CCCCCC/C=C/c1ccc2c(c1)OCO2 [GUINEENSINE]	14.9	36.8	Active	inactive	31.7	Non-toxic	–	–
O=C(/C=C/CCCC/C=C/c1ccc2c(c1)OCO2)N1CCCCC1 [PIPERNONALINE]	36.8	93.8	Active	–	70.2	Non-toxic	12.5	–

From ChEMBL document CHEMBL1156593, “Alkamides from the fruits of Piper longum and Piper nigrum displaying potent cell adhesion inhibition” (Bioorg Med Chem Lett, 2008)
